Laboratory results from patent publication US12187723B2 (BRISTOL-MYERS SQUIBB COMPANY, priority 2019, dated 2025).

Molecular target: T1, human TLR8 (Homo sapiens, UniProt Q9NR97)
T1 construct: host or cells: HEK-Blue cells
T1 sequence (Q9NR97 27-1041): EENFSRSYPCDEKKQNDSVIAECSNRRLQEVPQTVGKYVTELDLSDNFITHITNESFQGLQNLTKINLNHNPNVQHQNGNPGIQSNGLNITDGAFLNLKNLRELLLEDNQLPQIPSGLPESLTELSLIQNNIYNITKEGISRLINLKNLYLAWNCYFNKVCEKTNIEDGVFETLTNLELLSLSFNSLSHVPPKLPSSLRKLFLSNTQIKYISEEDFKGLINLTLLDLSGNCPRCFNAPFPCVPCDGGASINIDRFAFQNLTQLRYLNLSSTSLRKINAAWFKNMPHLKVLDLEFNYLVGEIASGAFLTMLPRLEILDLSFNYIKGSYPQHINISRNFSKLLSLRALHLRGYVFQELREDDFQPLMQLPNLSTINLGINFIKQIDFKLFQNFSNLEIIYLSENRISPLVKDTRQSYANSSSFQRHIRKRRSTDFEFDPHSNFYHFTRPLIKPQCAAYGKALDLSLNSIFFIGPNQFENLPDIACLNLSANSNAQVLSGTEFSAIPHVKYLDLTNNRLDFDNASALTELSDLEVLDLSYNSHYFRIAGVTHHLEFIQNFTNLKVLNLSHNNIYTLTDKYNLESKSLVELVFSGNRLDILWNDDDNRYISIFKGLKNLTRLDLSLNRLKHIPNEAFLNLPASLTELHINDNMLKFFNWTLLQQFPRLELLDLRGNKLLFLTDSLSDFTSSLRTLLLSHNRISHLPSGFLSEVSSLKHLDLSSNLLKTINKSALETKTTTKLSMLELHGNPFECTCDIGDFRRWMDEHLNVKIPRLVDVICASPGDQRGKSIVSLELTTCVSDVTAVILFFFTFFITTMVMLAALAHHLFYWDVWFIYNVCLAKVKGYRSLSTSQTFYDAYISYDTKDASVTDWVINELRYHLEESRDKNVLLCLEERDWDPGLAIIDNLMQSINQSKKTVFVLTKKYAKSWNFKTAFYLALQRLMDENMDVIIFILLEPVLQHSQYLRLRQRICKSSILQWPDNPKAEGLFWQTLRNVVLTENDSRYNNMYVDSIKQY
Assay: TLR8 inhibition reporter assay (HEK-Blue SEAP)
Format: cell-based
Details: HEK-Blue cells overexpressing human TLR8, R848 15.9 μM, 22 hour incubation
Procedure: TLR7/8/9 Inhibition Reporter Assays
HEK-Blue™-cells (Invivogen) overexpressing human TLR7, TLR8 or TLR9 receptors were used for screening inhibitors of these receptors using an inducible SEAP (secreted embryonic alkaline phosphatase) reporter gene under the control of the IFN-β minimal promoter fused to five NF-κB and AP-1-binding sites. Briefly, cells are seeded into Greiner 384 well plates (15000 cells per well for TLR7, 20,000 for TLR8 and 25,000 for TLR9) and then treated with test compounds in DMSO to yield a final dose response concentration range of 0.05 nM-50 μM. After a 30 minute compound pre-treatment at room temperature, the cells are then stimulated with a TLR7 ligand (gardiquimod at a final concentration of 7.5 μM), TLR8 ligand (R848 at a final concentration of 15.9 μM) or TLR9 ligand (ODN2006 at a final concentration of 5 nM) to activate NF-κB and AP-1 which induce the production of SEAP. After a 22 hour incubation at 37° C., 5% CO2, SEAP levels are determined with the addition of HEK-Blue™ Detection reagent (Invivogen), a cell culture medium that allows for detection of SEAP, according to manufacturer's specifications. The percent inhibition is determined as the % reduction in the HEK-Blue signal present in wells treated with agonist plus DMSO alone compared to wells treated with a known inhibitor.

Compared with `COc1cc(-c2cc3[nH]c(=O)n([C@H]4CCCN(CC5CC5)C4)c3cc2C(C)C)cn2ncnc12` (single isomer, unassigned) [Example 128], `CCN1CCC[C@@H](n2c(=O)[nH]c3cc(-c4cc(OC)c5ncnn5c4)c(C(C)C)cc32)C1` (single isomer, unassigned) [Example 144] is 1.9-fold higher in IC50: 0.00263 µM for the first, 0.00502 µM for the second.

`Cc1cc2c(cc1-c1cc(C)c3ncnn3c1)[nH]c(=O)n2C1CCN(C)CC1` [Example 3, 6-methyl-5-(8-methyl-[1,2,4]triazolo[1,5-a]pyridin-6-yl)-1-(1-methylpiperidin-4-yl)-1,3-dihydro-2H-benzo[d]imidazol-2-one] and `CCN1CCC(n2c(=O)[nH]c3cc(-c4cc(C)c5ncnn5c4)c(C)cc32)CC1` [Example 6, 1-(1-ethylpiperidin-4-yl)-6-methyl-5-(8-methyl-[1,2,4]triazolo[1,5-a]pyridin-6-yl)-1,3-dihydro-2H-benzo[d]imidazol-2-one] are within 1.5-fold of each other in IC50: 0.0368 µM for the first, 0.0463 µM for the second.

Compared with `Cc1cc(-c2ccc3c(c2)[nH]c(=O)n3C2CCN(C)CC2)cn2ncnc12` [Example 4, 5-(8-methyl-[1,2,4]triazolo[1,5-a]pyridin-6-yl)-1-(1-methylpiperidin-4-yl)-1,3-dihydro-2H-benzo[d]imidazol-2-one], `Cc1cc(-c2ccc3c(c2)[nH]c(=O)n3C2CCN(C(C)C)CC2)cn2ncnc12` [Example 5, 1-(1-isopropylpiperidin-4-yl)-5-(8-methyl-[1,2,4]triazolo[1,5-a]pyridin-6-yl)-1,3-dihydro-2H-benzo[d]imidazol-2-one] is higher in IC50: 1.28 µM for the first, over 3.13 µM for the second. The first is the more potent here.

First: CCCN1CCC(n2c(=O)[nH]c3cc(-c4cc(C)c5ncnn5c4)c(C)cc32)CC1 [Example 7, 6-methyl-5-(8-methyl-[1,2,4]triazolo[1,5-a]pyridin-6-yl)-1-(1-propylpiperidin-4-yl)-1,3-dihydro-2H-benzo[d]imidazol-2-one]
Second: CCN1CCC(n2c(=O)[nH]c3cc(-c4cc(OC)c5ncnn5c4)c(C)cc32)CC1 [Example 9, 1-(1-ethylpiperidin-4-yl)-5-(8-methoxy-[1,2,4]triazolo[1,5-a]pyridin-6-yl)-6-methyl-1,3-dihydro-2H-benzo[d]imidazol-2-one]
The IC50 of the first is 1.9-fold lower: 0.0486 µM for the first, 0.0927 µM for the second.

Going from `COc1cc(-c2cc3[nH]c(=O)n(C4CCN(C(C)C)CC4)c3cc2C)cn2ncnc12` [Example 10, 1-(1-isopropylpiperidin-4-yl)-5-(8-methoxy-[1,2,4]triazolo[1,5-a]pyridin-6-yl)-6-methyl-1,3-dihydro-2H-benzo[d]imidazol-2-one] to `COc1cc(-c2cc3[nH]c(=O)n(C4CCN(C(=O)CN(C)C)CC4)c3cc2C)cn2ncnc12` [Example 100, 1-(1-(2-(dimethylamino)acetyl)piperidin-4-yl)-5-(8-methoxy-[1,2,4]triazolo[1,5-a]pyridin-6-yl)-6-methyl-1H-benzo[d]imidazol-2(3H)-one], the IC50 rises from 0.0897 µM to 0.175 µM (2-fold).

Going from `Cc1cc2c(cc1-c1cc(C)c3ncnn3c1)[nH]c(=O)n2[C@@H]1CCCN(CC(N)=O)C1` [Example 94, (R)-2-(3-(6-methyl-5-(8-methyl-[1,2,4]triazolo[1,5-a]pyridin-6-yl)-2-oxo-2,3-dihydro-1H-benzo[d]imidazol-1-yl)piperidin-1-yl)acetamide] to `Cc1cc2c(cc1-c1cc(C)c3ncnn3c1)[nH]c(=O)n2[C@@H]1CCCN(CC(=O)N(C)C)C1` [Example 95, (R)—N,N-dimethyl-2-(3-(6-methyl-5-(8-methyl-[1,2,4]triazolo[1,5-a]pyridin-6-yl)-2-oxo-2,3-dihydro-1H-benzo[d]imidazol-1-yl)piperidin-1-yl)acetamide], the IC50 falls from 0.339 µM to 0.0834 µM (4.1-fold).

`Cc1cc2c(cc1-c1cc(C)c3ncnn3c1)[nH]c(=O)n2[C@@H]1CCCN(CC#N)C1` [Example 96, (R)-2-(3-(6-methyl-5-(8-methyl-[1,2,4]triazolo[1,5-a]pyridin-6-yl)-2-oxo-2,3-dihydro-1H-benzo[d]imidazol-1-yl)piperidin-1-yl)acetonitrile] and `COCCN1CCC[C@@H](n2c(=O)[nH]c3cc(-c4cc(C)c5ncnn5c4)c(C)cc32)C1` [Example 97, (R)-1-(1-(2-methoxyethyl)piperidin-3-yl)-6-methyl-5-(8-methyl-[1,2,4]triazolo[1,5-a]pyridin-6-yl)-1,3-dihydro-2H-benzo[d]imidazol-2-one] are within 1.5-fold of each other in IC50: 0.0453 µM for the first, 0.0437 µM for the second.

First: COCCN1CCC[C@@H](n2c(=O)[nH]c3cc(-c4cc(OC)c5ncnn5c4)c(C)cc32)C1 [Example 98, (R)-5-(8-methoxy-[1,2,4]triazolo[1,5-a]pyridin-6-yl)-1-(1-(2-methoxyethyl)piperidin-3-yl)-6-methyl-1,3-dihydro-2H-benzo[d]imidazol-2-one]
Second: COc1cc(-c2cc3[nH]c(=O)n([C@@H]4CCCN(CC(=O)N(C)C)C4)c3cc2C)cn2ncnc12 [Example 99, (R)-2-(3-(5-(8-methoxy-[1,2,4]triazolo[1,5-a]pyridin-6-yl)-6-methyl-2-oxo-2,3-dihydro-1H-benzo[d]imidazol-1-yl)piperidin-1-yl)-N,N-dimethylacetamide]
The IC50 of the first is 5.8-fold lower: 0.0606 µM for the first, 0.354 µM for the second.

Going from `Cc1cc2c(cc1-c1cc(C)c3ncnn3c1)[nH]c(=O)n2C1CCN(C(=O)CN(C)C)CC1` [Example 101, 1-(1-(dimethylglycyl)piperidin-4-yl)-6-methyl-5-(8-methyl-[1,2,4]triazolo[1,5-a]pyridin-6-yl)-1,3-dihydro-2H-benzo[d]imidazol-2-one] to `Cc1cc2c(cc1-c1cc(C)c3ncnn3c1)[nH]c(=O)n2[C@H]1CCCN(C(=O)CN(C)C)C1` [Example 103, (S)-1-(1-(dimethylglycyl)piperidin-3-yl)-6-methyl-5-(8-methyl-[1,2,4]triazolo[1,5-a]pyridin-6-yl)-1,3-dihydro-2H-benzo[d]imidazol-2-one], the IC50 rises from 0.0503 µM to 0.205 µM (4.1-fold).

Going from `Cc1cc(-c2ccc3c(c2)[nH]c(=O)n3C2CCN(C(=O)CN(C)C)CC2)cn2ncnc12` [Example 102, 1-(1-(dimethylglycyl)piperidin-4-yl)-5-(8-methyl-[1,2,4]triazolo[1,5-a]pyridin-6-yl)-1,3-dihydro-2H-benzo[d]imidazol-2-one] to `Cc1cc2c(cc1-c1cc(C)c3ncnn3c1)[nH]c(=O)n2[C@@H]1CCCN(C(=O)CN(C)C)C1` [Example 104, (R)-1-(1-(dimethylglycyl)piperidin-3-yl)-6-methyl-5-(8-methyl-[1,2,4]triazolo[1,5-a]pyridin-6-yl)-1,3-dihydro-2H-benzo[d]imidazol-2-one], the IC50 falls from over 3.13 µM to 0.0476 µM.

Going from `COc1cc(-c2cc3[nH]c(=O)n(C4CCCN(C(=O)CN(C)C)C4)c3cc2C)cn2ncnc12` (stereo not drawn) [Example 105, 1-(1-(dimethylglycyl)piperidin-3-yl)-5-(8-methoxy-[1,2,4]triazolo[1,5-a]pyridin-6-yl)-6-methyl-1,3-dihydro-2H-benzo[d]imidazol-2-one] to `CCN1CCC(n2c(=O)[nH]c3cc(-c4cc(C)c5ncnn5c4)cc(C)c32)CC1` [Example 108, 1-(1-ethylpiperidin-4-yl)-7-methyl-5-(8-methyl-[1,2,4]triazolo[1,5-a]pyridin-6-yl)-1,3-dihydro-2H-benzo[d]imidazol-2-one], the IC50 falls from 0.318 µM to 0.0831 µM (3.8-fold). The second is the more potent here.

Compared with `Cc1cc(-c2cc(C)c3ncnn3c2)cc2[nH]c(=O)n(C3CCN(C)CC3)c12` [Example 106, 7-methyl-5-(8-methyl-[1,2,4]triazolo[1,5-a]pyridin-6-yl)-1-(1-methylpiperidin-4-yl)-1,3-dihydro-2H-benzo[d]imidazol-2-one], `Cc1cc(-c2cc(C)c3ncnn3c2)cc2[nH]c(=O)n(C3CCN(C(C)C)CC3)c12` [Example 107, 1-(1-isopropylpiperidin-4-yl)-7-methyl-5-(8-methyl-[1,2,4]triazolo[1,5-a]pyridin-6-yl)-1,3-dihydro-2H-benzo[d]imidazol-2-one] is 1.7-fold higher in IC50: 0.15 µM for the first, 0.249 µM for the second. The first is the more potent here.
